Experimental data published in US12404268B2, “2-heteroaryl aminoquinazolinone derivative” (Sumitomo Pharma Co., Ltd., priority 2020, dated 2025).

System: neurons induced to differentiate from SCN1A gene deficient human iPS cells
Assay: Test for measuring hyperexcitation suppression activity (spontaneous calcium oscillation frequency)
Format: cell-based
Details: Homo sapiens, Neuron; @1 μM; read-out: inhibition rate
Source text: Test for Measuring Hyperexcitation Suppression Activity Using Neurons Induced to Differentiate from SCN1A Gene Deficient Human iPS Cells
(1) Induction of Differentiation from Human iPS cells to Neurons
Half of the culture solution was exchanged once every 3 to 4 days.
(2) Fluorescent Calcium Probe Treatment, Addition of Compound, and Evaluation of Intracellular Calcium Concentration
Half of the culture solution was removed on day 60 from induction of differentiation or thereafter. A medium for measurement comprising a fluorescent calcium probe (Molecular Device, product name: FLIPR Calcium 6 Assay Bulk Kit, cat #R8191) was added at an amount equal to the remaining medium. The culture was left standing for 30 minutes and subjected to measurement.
The test compounds were serially diluted with a dimethyl sulfoxide (DMSO) solution so that the final concentration would be 0.1 to 100 μM to prepare a concentrate with a concentration that is 6-fold of the final concentration.
The intensity of fluorescence of a calcium probe was measured over time with FDSS7000EX (Hamamatsu Photonics) to evaluate the change in intracellular calcium concentrations. First, the intensity of fluorescence was measured for 2 minutes. The compound solutions were then added using FDSS7000EX for an additional 8 minute measurement of fluorescence intensity. The frequency of spontaneous calcium oscillation was quantified as an indicator of nerve excitation. With the frequency for 2 minutes before the addition of the compound solutions as 100%, the ratio of frequency for the last 2 minutes after addition of the compound solutions was calculated.

Going from `Cc1ccc(Nc2nc3ccc(F)cc3c(=O)n2-c2ccccc2)nc1` [Example 137, 6-fluoro-2-((5-methylpyridin-2-yl)amino)-3-phenylquinazolin-4(3H)-one] to `Cc1cccc(Nc2nc3ccc(F)cc3c(=O)n2-c2ccccc2)n1` [Example 138], the inhibition at 1 µM falls from 85% to 70%.

First: O=c1c2cc(F)ccc2nc(Nc2ccncc2F)n1-c1ccccc1 [Example 140]
Second: O=c1c2cc(F)ccc2nc(Nc2ccnc(F)c2)n1-c1ccccc1 [Example 141, 6-fluoro-2-((2-fluoropyridin-4-yl)amino)-3-phenylquinazolin-4(3H)-one]
The inhibition at 1 µM of the first is lower: 46% for the first, 97% for the second.

First: COc1ccccc1-n1c(Nc2cccnc2)nc2ccc(F)cc2c1=O [Example 142, 6-fluoro-3-(2-methoxyphenyl)-2-(pyridin-3-ylamino)quinazolin-4(3H)-one]
Second: O=c1c2cc(F)ccc2nc(Nc2cccnc2)n1-c1ccccc1Cl [Example 145, 3-(2-chlorophenyl)-6-fluoro-2-(pyridin-3-ylamino)quinazolin-4(3H)-one]
The inhibition at 1 µM of the first is lower: 86% for the first, 100% for the second.

First: COc1ccc(-n2c(Nc3cccnc3)nc3ccc(F)cc3c2=O)cc1 [Example 143]
Second: O=c1c2cc(F)ccc2nc(Nc2cccnc2)n1-c1ccsc1 [Example 161]
The inhibition at 1 µM of the first is higher: 45% for the first, 35% for the second.

First: Cn1nccc1-n1c(Nc2cccnc2)nc2ccc(F)cc2c1=O [Example 150]
Second: C[C@@H](c1ccccc1)n1c(Nc2cccnc2)nc2ccc(F)cc2c1=O [Example 163]
The inhibition at 1 µM of the first is lower: 26% for the first, 70% for the second.

Going from `O=c1c2cc(F)ccc2nc(Nc2cccnc2)n1C1(c2ccccc2)CC1` [Example 153] to `O=c1c2cc(F)ccc2nc(Nc2cccnc2)n1C1(c2ccccc2)COC1` [Example 168], the inhibition at 1 µM falls from 99% to 58%.

Same assay, conditions: Homo sapiens, Neuron; @10 μM; read-out: inhibition rate

Going from `Cc1cc(Nc2nc3ccc(F)cc3c(=O)n2-c2ccccc2)ccn1` [Example 139] to `COc1ccc(Nc2nc3ccc(F)cc3c(=O)n2-c2ccccc2)nc1` [Example 149], the inhibition at 10 µM falls from 100% to 32%.

First: O=c1c2cc(Cl)ccc2nc(Nc2ccncn2)n1-c1ccccc1 [Example 146]
Second: O=c1c2cc(F)cnc2nc(Nc2cccnc2)n1-c1ccccc1 [Example 162]
The inhibition at 10 µM of the first is lower: 11% for the first, 39% for the second.

First: O=c1c2cc(F)ccc2nc(Nc2cccnc2)n1Cc1ccccc1 [Example 151]
Second: O=c1c2cc(F)ccc2nc(Nc2cccnc2)n1CCc1ccccc1 [Example 158]
The inhibition at 10 µM of the first is lower: 2% for the first, 100% for the second.

Compared with `O=c1c2cccnc2nc(Nc2cccnc2)n1-c1ccccc1` [Example 152], `O=c1c2cc(F)ccc2nc(Nc2cccnc2)n1Cc1ccccn1` [Example 157] is higher in inhibition at 10 µM: 15% for the first, 90% for the second.

Compared with `Cc1nn(C)c(C)c1-n1c(Nc2cccnc2)nc2ccc(F)cc2c1=O` [Example 154], `O=c1c2cc(F)ccc2nc(Nc2cccnc2)n1-c1cncs1` [Example 160] is lower in inhibition at 10 µM: 98% for the first, 58% for the second.

Compared with `O=c1c2cc(F)ccc2nc(Nc2cccnc2)n1CC1CCCCC1` [Example 155], `CN1CCC(Cn2c(Nc3cccnc3)nc3ccc(F)cc3c2=O)CC1` [Example 156] is higher in inhibition at 10 µM: 81% for the first, 95% for the second.

First: O=c1c2cc(F)ccc2nc(Nc2cccnc2)n1CCN1CCCC1 [Example 159]
Second: O=c1c2cc(F)ccc2nc(Nc2cccnc2)n1C1CC1 [Example 165]
The inhibition at 10 µM of the first is lower: 56% for the first, 100% for the second.

First: O=c1c2cc(F)ccc2nc(Nc2cccnc2)n1[C@H]1CCCOC1 [Example 164]
Second: C[C@@H]1CN(C)CC[C@H]1n1c(Nc2cccnc2)nc2ccc(F)cc2c1=O [Example 166]
The inhibition at 10 µM of the first is higher: 92% for the first, 36% for the second.

For `Cc1ccccc1C1(n2c(Nc3cccnc3)nc3ccc(F)cc3c2=O)CC1` [Example 167], the inhibition at 10 µM was 100%.

Same assay, conditions: Homo sapiens, Neuron; @100 μM; read-out: inhibition rate

First: COc1cnccc1Nc1nc2ccc(F)cc2c(=O)n1-c1ccccc1 [Example 144]
Second: O=c1c2ccccc2nc(Nc2ccc3oncc3c2)n1-c1ccccc1 [Example 148]
The inhibition at 100 µM of the first is higher: 16% for the first, 10% for the second.

Same assay, conditions: Neuron; SCN1A gene deficient human iPS cell-derived neurons; FLIPR Calcium 6, FDSS7000EX; read-out: IC50 (50% inhibitory concentration, frequency of spontaneous calcium oscillation)

Compound `Cc1ccncc1Nc1nc2ccc(Cl)cc2c(=O)n1-c1ccccc1` [Example 147] has an IC50 of 2700 nM.
